Legend:
Bcl-2 protein = Bcl-2 protein (histag-Bcl-2, UniProtKB P10415) (Homo sapiens (Human), UniProt P10415); experiment: Inhibition of Bcl-2 by the fluorescence polarisation technique; type: binding; conditions: fluorescence polarisation test; incubation for 2 hours; read-out: IC50 (nM) Bcl-2 FP
Description: For partial inhibitors, the percentage fluorescence polarisation inhibition for a given concentration of the test compound is indicated.

[1] = tested on: RS4; 11 leukaemia cell line; experiment: In vitro cytotoxicity, Microculture Tetrazolium Assay (MTT); type: cell-based; conditions: Homo sapiens, 11 cells exposed for 48 hours
Protocol: The cytotoxicity studies were carried out on the RS4; 11 leukaemia cell line and on H146 small Cell Lung Carcinoma cell line. The cells are distributed onto microplates and exposed to the test compounds for 48 hours. The cell viability is then quantified by a colorimetric assay, the Microculture Tetrazolium Assay (Cancer Res., 1987, 47, 939-942).

Bcl-2 protein, sequence (P10415 whole entry): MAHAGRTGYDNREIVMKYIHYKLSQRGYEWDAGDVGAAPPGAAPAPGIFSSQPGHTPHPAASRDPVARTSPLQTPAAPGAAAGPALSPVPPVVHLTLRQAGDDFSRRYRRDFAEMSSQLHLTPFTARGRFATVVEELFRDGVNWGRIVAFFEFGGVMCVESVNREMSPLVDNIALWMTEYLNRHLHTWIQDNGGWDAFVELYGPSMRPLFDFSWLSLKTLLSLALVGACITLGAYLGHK

Row | IC50 (Bcl-2 protein) [nM] | Compound | IC50 [1] [nM]
1 | 8.7 | C[C@@H]1Cc2ccccc2CN1C(=O)c1cc2c(cc1-c1cc(C(=O)N(C)c3ccc(O)cc3)c3n1CCCC3)CCN(C(=O)NC(C)(C)C)C2 [Example 48, N-tert-Butyl-6-{1-[(4-hydroxyphenyl)(methyl)carbamoyl]-5,6,7,8-tetrahydroindolizin-3-yl}-7-[(3R)-3-methyl-1,2,3,4-tetrahydroisoquinoline-2-carbonyl]-1,2,3,4-tetrahydroisoquinoline-2-carboxamide] | 40
2 | 23 | C[C@@H]1Cc2ccccc2CN1C(=O)c1cc2c(cc1-c1cc(C(=O)N(C)c3ccc(O)cc3)c3n1CCCC3)CN(C(=O)COc1ccc(Cl)cc1)C2 [Example 49, 3-{2-[2-(4-Chlorophenoxy)acetyl]-6-[(3R)-3-methyl-1,2,3,4-tetrahydroisoquinoline-2-carbonyl]-2,3-dihydro-1H-isoindol-5-yl}-N-(4-hydroxyphenyl)-N-methyl-5,6,7,8-tetrahydroindolizine-1-carboxamide] | 58
3 | 18 | C[C@@H]1Cc2ccccc2CN1C(=O)c1cc2c(cc1-c1cc(C(=O)N(C)c3ccc(O)cc3)c3n1CCCC3)CN(C(=O)COc1cccc(Cl)c1)C2 [Example 50, 3-{2-[2-(3-Chlorophenoxy)acetyl]-6-[(3R)-3-methyl-1,2,3,4-tetrahydroisoquinoline-2-carbonyl]-2,3-dihydro-1H-isoindol-5-yl}-N-(4-hydroxyphenyl)-N-methyl-5,6,7,8-tetrahydroindolizine-1-carboxamide] | 26
4 | 5.5 | COc1ccc(CC(=O)N2Cc3cc(C(=O)N4Cc5ccccc5C[C@H]4C)c(-c4cc(C(=O)N(C)c5ccc(O)cc5)c5n4CCCC5)cc3C2)cc1 [Example 51, N-(4-Hydroxyphenyl)-3-{2-[2-(4-methoxyphenyl)acetyl]-6-[(3R)-3-methyl-1,2,3,4-tetrahydroisoquinoline-2-carbonyl]-2,3-dihydro-1H-isoindol-5-yl}-N-methyl-5,6,7,8-tetrahydroindolizine-1-carboxamide] | 23
5 | 3.8 | C[C@@H]1Cc2ccccc2CN1C(=O)c1cc2c(cc1-c1cc(C(=O)N(C)c3ccc(O)cc3)c3n1CCCC3)CN(C(=O)COc1ccccc1)C2 [Example 52, N-(4-Hydroxyphenyl)-N-methyl-3-{6-[(3R)-3-methyl-1,2,3,4-tetrahydroisoquinoline-2-carbonyl]-2-(2-phenoxyacetyl)-2,3-dihydro-1H-isoindol-5-yl}-5,6,7,8-tetrahydroindolizine-1-carboxamide] | 56
6 | 2.4 | C[C@@H]1Cc2ccccc2CN1C(=O)c1cc2c(cc1-c1cc(C(=O)N(C)c3ccc(O)cc3)c3n1CCCC3)CCN(C(=O)Cc1ccc(C#N)cc1)C2 [Example 53, 3-{2-[2-(4-Cyanophenyl)acetyl]-7-[(3R)-3-methyl-1,2,3,4-tetrahydroisoquinoline-2-carbonyl]-1,2,3,4-tetrahydroisoquinolin-6-yl}-N-(4-hydroxyphenyl)-N-methyl-5,6,7,8-tetrahydroindolizine-1-carboxamide] | 5
7 | 4 | Cc1ccc(CC(=O)N2CCc3cc(-c4cc(C(=O)N(C)c5ccc(O)cc5)c5n4CCCC5)c(C(=O)N4Cc5ccccc5C[C@H]4C)cc3C2)cc1 [Example 54, N-(4-Hydroxyphenyl)-N-methyl-3-{7-[(3R)-3-methyl-1,2,3,4-tetrahydroisoquinoline-2-carbonyl]-2-[2-(4-methylphenyl)acetyl]-1,2,3,4-tetrahydroisoquinolin-6-yl}-5,6,7,8-tetrahydroindolizine-1-carboxamide] | 2.4
8 | 16 | CNC(=O)N1Cc2cc(C(=O)N3Cc4ccccc4C[C@H]3C)c(-c3cc(C(=O)N(C)c4ccc(O)cc4)c4n3CCCC4)cc2C1 [Example 55, 5-{1-[(4-Hydroxyphenyl)(methyl)carbamoyl]-5,6,7,8-tetrahydroindolizin-3-yl}-N-methyl-6-[(3R)-3-methyl-1,2,3,4-tetrahydroisoquinoline-2-carbonyl]-2,3-dihydro-1H-isoindole-2-carboxamide] | 372
9 | 3.8 | CCS(=O)(=O)N1CCc2cc(-c3cc(C(=O)N(C)c4ccc(O)cc4)c4n3CCCC4)c(C(=O)N3Cc4ccccc4C[C@H]3C)cc2C1 [Example 56, 3-[2-(Ethanesulfonyl)-7-[(3R)-3-methyl-1,2,3,4-tetrahydroisoquinoline-2-carbonyl]-1,2,3,4-tetrahydroisoquinolin-6-yl]-N-(4-hydroxyphenyl)-N-methyl-5,6,7,8-tetrahydroindolizine-1-carboxamide] | 59
10 | 65 | CCN1CCc2cc(-c3cc(C(=O)N(C)c4ccc(O)cc4)c4n3CCCC4)c(C(=O)N3Cc4ccccc4C[C@H]3C)cc2C1 [Example 57, 3-{2-Ethyl-7-[(3R)-3-methyl-1,2,3,4-tetrahydroisoquinoline-2-carbonyl]-1,2,3,4-tetrahydroisoquinolin-6-yl}-N-(4-hydroxyphenyl)-N-methyl-5,6,7,8-tetrahydroindolizine-1-carboxamide] | 1250
11 | 4.2 | C[C@@H]1Cc2ccccc2CN1C(=O)c1cc2c(cc1-c1cc(C(=O)N(C)c3ccc(O)cc3)c3n1CCCC3)CCN(C(=O)Oc1ccc(N)cc1)C2 [Example 58, 4-Aminophenyl 6-{1-[(4-hydroxyphenyl)(methyl)carbamoyl]-5,6,7,8-tetrahydroindolizin-3-yl}-7-[(3R)-3-methyl-1,2,3,4-tetrahydroisoquinoline-2-carbonyl]-1,2,3,4-tetrahydroisoquinoline-2-carboxylate] | 3.3
12 | 3.2 | CC(=O)Nc1ccc(OC(=O)N2CCc3cc(-c4cc(C(=O)N(C)c5ccc(O)cc5)c5n4CCCC5)c(C(=O)N4Cc5ccccc5C[C@H]4C)cc3C2)cc1 [Example 59, 4-Acetamidophenyl 6-{1-[(4-hydroxyphenyl)(methyl)carbamoyl]-5,6,7,8-tetrahydroindolizin-3-yl}-7-[(3R)-3-methyl-1,2,3,4-tetrahydroisoquinoline-2-carbonyl]-1,2,3,4-tetrahydroisoquinoline-2-carboxylate] | 6.8
13 | 5.9 | C[C@@H]1Cc2ccccc2CN1C(=O)c1cc2c(cc1-c1cc(C(=O)N(C)c3ccc(O)cc3)c3n1CCCC3)CN(C(=O)Nc1ccccc1)C2 [Example 60, 5-{1-[(4-Hydroxyphenyl)(methyl)carbamoyl]-5,6,7,8-tetrahydroindolizin-3-yl}-6-[(3R)-3-methyl-1,2,3,4-tetrahydroisoquinoline-2-carbonyl]-N-phenyl-2,3-dihydro-1H-isoindole-2-carboxamide] | 46
14 | 4.4 | C[C@@H]1Cc2ccccc2CN1C(=O)c1cc2c(cc1-c1cc(C(=O)N(C)c3ccc(O)cc3)c3n1CCCC3)CN(C(=O)NCc1ccccc1)C2 [Example 61, N-Benzyl-5-{1-[(4-hydroxyphenyl)(methyl)carbamoyl]-5,6,7,8-tetrahydroindolizin-3-yl}-6-[(3R)-3-methyl-1,2,3,4-tetrahydroisoquinoline-2-carbonyl]-2,3-dihydro-1H-isoindole-2-carboxamide] | 85

Source: US9809574B2, “Isoindoline or isoquinoline compounds, a process for their preparation and pharmaceutical compositions containing them” (LES LABORATOIRES SERVIER, priority 2013, dated 2017)
